Source: US12714736B2, “Methods for preventing an immunoglobulin e-related disease” (MY-OR DIAGNOSTICS LTD., priority 2019, dated 2026)

Test system: Staphylococcus epidermidis
Test: Anti/pro microbial study: Staphylococcus epidermidis cultured on a plate comprising acemannan
Assay type: cell-based
Conditions: culture plate, Acemannan 0.2% (w/w) vs control (double-distilled water), FIG. 1
Description: FIG. 1 includes a micrograph of culture plate of Staphylococcus epidermidis. The bacteria were cultured on the plate in presence of either Acemannan (0.2% (w/w)) or control (double-distilled water).
The inventors examined the activity of a composition comprising acemannan. The inventors performed an anti/pro microbial study, by culturing Staphylococcus epidermidis on a plate comprising acemannan. S. epidermidis is a skin resident who is known to play an important role in immune training and pathogen resistance. […] This supports the inventors' notion that the herein disclosed cream supports healthy colonization of the skin microbiome.

Question: What does the source list for Acemannan?
Answer: growth of S. epidermidis: Comparable levels of bacterial growth; growth of S. epidermidis (listed as acemannan): did not affect the growth of S. epidermidis
